Read-outs that look alike come from different tables or passages of the source.
Target: T1, Human Recombinant Matriptase 2 (Homo sapiens, UniProt Q8IU80)
T1 construct: made in house
T1 sequence (Q8IU80 1-811): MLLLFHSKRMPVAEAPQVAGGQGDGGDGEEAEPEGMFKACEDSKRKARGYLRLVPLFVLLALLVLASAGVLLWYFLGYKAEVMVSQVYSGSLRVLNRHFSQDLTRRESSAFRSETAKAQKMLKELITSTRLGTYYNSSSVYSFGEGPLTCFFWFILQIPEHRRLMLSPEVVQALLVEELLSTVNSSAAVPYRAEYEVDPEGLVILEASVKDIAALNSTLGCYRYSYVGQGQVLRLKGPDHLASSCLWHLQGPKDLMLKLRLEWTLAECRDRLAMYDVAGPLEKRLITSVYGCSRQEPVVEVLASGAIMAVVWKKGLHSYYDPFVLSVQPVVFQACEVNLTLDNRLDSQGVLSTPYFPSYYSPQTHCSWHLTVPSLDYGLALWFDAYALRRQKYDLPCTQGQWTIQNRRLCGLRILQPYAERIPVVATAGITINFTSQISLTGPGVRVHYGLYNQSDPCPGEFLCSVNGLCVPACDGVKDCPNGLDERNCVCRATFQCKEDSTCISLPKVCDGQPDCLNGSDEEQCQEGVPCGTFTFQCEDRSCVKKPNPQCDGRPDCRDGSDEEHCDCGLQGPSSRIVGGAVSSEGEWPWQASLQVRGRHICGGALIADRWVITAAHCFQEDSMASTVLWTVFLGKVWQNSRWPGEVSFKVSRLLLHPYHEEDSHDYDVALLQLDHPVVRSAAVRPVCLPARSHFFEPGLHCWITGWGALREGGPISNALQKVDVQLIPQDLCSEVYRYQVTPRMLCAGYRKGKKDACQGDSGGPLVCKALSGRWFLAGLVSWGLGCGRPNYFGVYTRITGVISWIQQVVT
Assay: Matriptase 2 inhibition, fluorescence based assay (Method I)
Assay type: biochemical
Method: • Method I: Test compounds were evaluated for their potential to inhibit Human Recombinant Matriptase 2 (in-house) using fluorescence based assay. The concentration of Recombinant Matriptase 2 and the substrate used in the assay was: 3.5 nM (In-house Matriptase 2) and 62 μM (Boc-Gln-Ala-Arg-7-amido-4-methyl coumarin hydrobromide −Cat log: I-1550 from Bachem) respectively. The assay buffer used was 50 mM TRIS pH 7.5, 150 mM NaCl, 0.01% Gelatin TCL059 Himedia). The assay was performed using 384 well black flat bottom plate from grenier (Cat log: 781076) at 25° C. The enzyme and compound were preincubated for 30 mins, the plate was read at 60 mins after substrate addition at wavelength Ex: 360/Em: 480 nm. The final assay volume was 20 μl. A stock solution of compounds was initially prepared in DMSO and appropriate dilutions were made and IC50 was determined for all the compounds (final DMSO conc in the assay was 1%). All the measurements were carried out using the Spectramax M5, Molecular devices.
To determine Ki values, dose response curves were generated by plotting percentage inhibition as a function of inhibitor concentration and the data was fitted to sigmoidal non-linear regression equation (variable slope) using Graph Pad prism software V8.

[1] = Table A, Ki of Matriptase-2, read-out: Mat-2 Ki
[2] = Table A, Ki of Matriptase-2 given as class symbols, read-out: Mat-2 Ki
[3] = Table B, Human Recombinant Matriptase 2, 3.5 nM enzyme, 62 μM substrate, 30 mins preincubation, read-out: Mean Ki

SMILES	Ki [1]	further results
CC(C)(C)n1cncc1CCOC(=O)c1cc2ccc(CN)nc2n1Cc1cc(NS(=O)(=O)Cc2ccccc2)cc2ccccc12 [Compound 104, 2-(1-tert-butyl-1H-imid-azol-5-yl)ethyl 6-(amino-methyl)-1-{[3-(phenyl-methanesulfonamido)-naphthalen-1-yl]methyl}-1H-pyrrolo[2,3-b]pyr-idine-2-carboxylate]	100 to 500 nM	–
NCc1ccc2cc(C(=O)O)n(Cc3cc(NS(=O)(=O)CC[C@@H]4CCCN4)cc4ccccc34)c2n1 [Compound 1, (S)-6-(aminomethyl)-1-((3-((2-(pyrrolidin-2-yl)ethyl)sulfonamido)naphthalen-1-yl)methyl)-1H-pyrrolo[2,3-b]pyridine-2-carboxylic acid]	≤ 100 nM	–
CN(C)CCCCOC(=O)c1cc2ccc(CN)cc2n1Cc1cc(NS(=O)(=O)Cc2ccccc2)cc2ccccc12 [Compound 384, 4-(dimethylamino)butyl 6-(aminomethyl)-1-{[3-(phenylmethanesulfon-amido)naphthalen-1-yl]-methyl}-1H-indole-2-carboxylate]	–	Ki [2]: 100 to 500 nM
Cc1cccc(C)c1CS(=O)(=O)Nc1cc(Cn2c(C(=O)OCCN(C)C)cc3ccc(CN)nc32)c2ccccc2c1 [Compound 201, 2-(dimethylamino)ethyl 6-(aminomethyl)-1-({3-[(2,6-dimethylphenyl)-methanesulfonamido]-naphthalen-1-yl}methyl)-1H-pyrrolo[2,3-b]pyr-idine-2-carboxylate]	–	Ki [2]: 100 to 500 nM
CC(C)OC(=O)c1cc2ccc(CN)nc2n1Cc1cc(NS(=O)(=O)CC[C@@H]2CCCN2)cc2ccccc12 [Compound 270, propan-2-yl 6-(amino-methyl)-1-[(3-{2-[(2S)-pyrrolidin-2-yl]ethane-sulfonamido}naphthalen-1-yl)methyl]-1H-pyrrolo-[2,3-b]pyridine-2-car-boxylate]	–	Ki [2]: 500 to 3000 nM
C[C@H](OC(=O)c1ccccc1)OC(=O)c1cc2ccc(CN)nc2n1Cc1cc(NS(=O)(=O)Cc2ccccc2)cc2ccccc12 (racemic) [Compound 124, 1-[6-(aminomethyl)-1-{[3-(phenylmethanesul-fonamido)naphthalen-1-yl]methyl}-1H-pyrrolo-[2,3-b]pyridine-2-car-bonyloxy]ethyl benzoate]	500 to 3000 nM	–
CN1CCC(COC(=O)c2cc3ccc(CN)cc3n2Cc2cc(NS(=O)(=O)Cc3ccccc3)cc3ccccc23)CC1 [Compound 376, (1-methylpiperidin-4-yl)-methyl 6-(aminomethyl)-1-1{[3-(phenylmethane-sulfonamido)naphthalen-1-yl]methyl}-1H-indole-2-carboxylate]	–	Ki [2]: ≤ 100 nM
CN1CC(COC(=O)c2cc3ccc(CN)nc3n2Cc2cc(NS(=O)(=O)Cc3ccccc3)cc3ccccc23)CC1=O (stereo not drawn) [Compound 2.21]	–	Ki [3]: ≤ 100 nM
CN(C)C(=O)CCCOC(=O)c1cc2ccc(CN)nc2n1Cc1cc(CS(=O)(=O)Cc2ccsc2)cc2ccccc12 [Compound 2.10]	–	Ki [3]: ≤ 100 nM
COc1ccc(Cl)cc1CS(=O)(=O)Nc1cc(Cn2c(C(=O)O)cc3ccc(CN)nc32)c2ccccc2c1 [Compound 247, 6-(aminomethyl)-1-({3-[(5-chloro-2-methoxy-phenyl)methanesulfon-amido]naphthalen-1-yl}-methyl)-1H-pyrrolo[2,3-b]pyridine-2-carboxylic acid]	–	Ki [2]: 500 to 3000 nM
CC(C)n1ccc(COC(=O)c2cc3ccc(CN)nc3n2Cc2cc(NS(=O)(=O)Cc3ccccc3)cc3ccccc23)n1 [Compound 90, [1-(propan-2-yl)-1H-pyrazol-3-yl]methyl 6-(aminomethyl)-1-{[3-(phenylmethanesulfon-amido)naphthalen-1-yl]-methyl}-1H-pyrrolo[2,3-b]pyridine-2-carboxylate]	100 to 500 nM	–
Cc1cccc(C)c1CS(=O)(=O)Nc1cc2c(c(Cn3c(C(=O)OCc4nccn4C)cc4ccc(CN)nc43)c1)CCCC2 [Compound 2.44]	–	Ki [3]: 100 to 500 nM
CC(C)(C)S(=O)(=O)N1CCC(CNC(=O)Nc2cc(Cn3c(C(=O)O)cc4ccc(CN)cc43)c3ccccc3c2)CC1 [Compound 396, 6-(aminomethyl)-1-({3-[({[1-(2-methylpropane-2-sulfonyl)piperidin-4-yl]methyl}carbamoyl)-amino]naphthalen-1-yl}-methyl)-1H-indole-2-carboxylic acid]	–	Ki [2]: 100 to 500 nM
NCc1ccc2cc(C(=O)OCCn3cnnn3)n(Cc3cc(NS(=O)(=O)Cc4ccccc4)cc4ccccc34)c2n1 [Compound 86, 2-(1H-1,2,3,4-tetrazol-1-yl)ethyl 6-(amino-methyl)-1-{[3-(phenyl-methanesulfonamido)-naphthalen-1-yl]methyl}-1H-pyrrolo[2,3-b]pyr-idine-2-carboxylate]	100 to 500 nM	–
NCc1ccc2cc(C(=O)OCC3CCN(CC4CC4)CC3)n(Cc3cc(NS(=O)(=O)Cc4ccccc4)cc4ccccc34)c2n1 [Compound 21, [1-(cyclopropylmeth-yl)piperidin-4-yl]methyl 6-(aminomethyl)-1-{[3-(phenylmethanesulfon-amido)naphthalen-1-yl]-methyl}-1H-pyrrolo[2,3-b]pyridine-2-carboxylate]	≤ 100 nM	–

Further lines, with some results ahead:

Ki [1]	SMILES	further results
≤ 100 nM	Cc1cccc(C)c1CS(=O)(=O)Nc1cc(Cn2c(C(=O)NCCC3CCN(C)CC3)cc3ccc(CN)nc32)c2ccccc2c1 [Compound 183, 6-(aminomethyl)-1-({3-[(2,6-dimethylphenyl)-methanesulfonamido]-naphthalen-1-yl}meth-yl)-N-[2-(1-methylpiper-idin-4-yl)ethyl]-1H-pyr-rolo[2,3-b]pyridine-2-carboxamide]	–
≤ 100 nM	Cc1cscc1CS(=O)(=O)Nc1cc(Cn2c(C(=O)OCC3CCN(C)CC3)cc3ccc(CN)nc32)c2ccccc2c1 [Compound 163, (1-methylpiperidin-4-yl)-methyl 6-(aminomethyl)-1-({3-[(4-methylthio-phen-3-yl)methanesul-fonamido]naphthalen-1-yl}methyl)-1H-pyrrolo-[2,3-b]pyridine-2-car-boxylate]	–
≤ 100 nM	CN1CCC(CCOC(=O)c2cc3ccc(CN)nc3n2Cc2cc(NS(=O)(=O)Cc3cccs3)cc3ccccc23)CC1 [Compound 150, 2-(1-methylpiperidin-4-yl)ethyl 6-(aminometh-yl)-1-({3-[(thiophen-2-yl)methanesulfonamido]-naphthalen-1-yl}methyl)-1H-pyrrolo[2,3-b]pyr-idine-2-carboxylate]	–
500 to 3000 nM	NCc1ccc2cc(C(=O)OCCN(Cc3ccccc3)CC3CC3)n(Cc3cc(NS(=O)(=O)Cc4ccccc4)cc4ccccc34)c2n1 [Compound 136, 2-[benzyl(cyclopropyl-methyl)amino]ethyl 6-(aminomethyl)-1-{[3-(phenylmethanesulfon-amido)naphthalen-1-yl]-methyl}-1H-pyrrolo[2,3-b]pyridine-2-carboxylate]	–
≤ 100 nM	CN1CCC(COC(=O)c2cc3ccc(CN)nc3n2Cc2cc(NS(=O)(=O)Cc3ccc(F)s3)cc3ccccc23)CC1 [Compound 149, (1-methylpiperidin-4-yl)methyl 6-(amino-methyl)-1-({3-[(5-fluoro-thiophen-2-yl)methane-sulfonamido]naphthalen-1-yl}methyl)-1H-pyr-rolo[2,3-b]pyridine-2-carboxylate]	–
≤ 100 nM	NCc1ccc2cc(C(=O)OCC3CCN(C=O)CC3)n(Cc3cc(NS(=O)(=O)Cc4ccsc4)cc4ccccc34)c2n1 [Compound 164, (1-formylpiperidin-4-yl)methyl 6-(aminometh-yl)-1-({3-[(thiophen-3-yl)methanesulfonamido]-naphthalen-1-yl}methyl)-1H-pyrrolo[2,3-b]pyr-idine-2-carboxylate]	–
